Test results: PubChem BioAssay AID190 (DTP/NCI, 2004)
Values joined by “and” are separate entries in the source; they are usually repeats but may differ in a detail not shown here. Equal values may be shown once. Inconclusive results and toxic doses are left out. How the source made its calls: active means survival T/C of 150% or more; inactive means T/C below 125% in these data.

Tested on: AKR/Lw mice, AKR lymphoma ip, median survival T/C
Experiment: NCI In Vivo Anticancer Drug Screen. Data for tumor model Lymphoma AKR (Transplanted) (intraperitoneal) in AKR/Lw mice
Conditions: endpoint: median survival time, higher = longer survival
Experimental: The antitumor activity of compounds was measured in mice bearing transplantable tumors. Survival or tumor size were measured and the results are expressed as the measurement made in the treated group (T) divided by the measurement made in the vehicle treated control group (C). The tumor model used in this assay is Lymphoma AKR (Transplanted) (intraperitoneal) in AKR/Lw mice

[1] = dose: 6.2 mg/kg/injection, schedule: Q04DX003 (ip), vehicle: saline
[2] = dose: 100.0 mg/kg/injection, schedule: Q01DX001 (ip), vehicle: saline
[3] = dose: 100.0 mg/kg/injection, schedule: Q04DX003 (ip), vehicle: saline
[4] = dose: 200.0 mg/kg/injection, schedule: Q01DX001 (ip), vehicle: saline
[5] = dose: 400.0 mg/kg/injection, schedule: Q01DX001 (ip), vehicle: saline

Measured: T/C

O=c1[nH]c(=O)n(C2CC(O)C(CO)O2)cc1F (centres undefined)
active: dose: 250.0 mg/kg/injection, schedule: Q04DX003 (ip), vehicle: saline 150 % of control
inactive: dose: 3.1 mg/kg/injection, schedule: Q04DX003 (ip), vehicle: saline 100 % of control | dose: 5.0 mg/kg/injection, schedule: Q01DX009 (ip), vehicle: saline 100 % of control | [1] 92 % of control | dose: 6.25 mg/kg/injection, schedule: Q01DX009 (ip), vehicle: saline 104 % of control | dose: 10.0 mg/kg/injection, schedule: Q01DX009 (ip), vehicle: saline 106 % of control | dose: 11.0 mg/kg/injection, schedule: Q01DX015 (ip), vehicle: saline 86 % of control | dose: 12.5 mg/kg/injection, schedule: Q01DX015 (ip), vehicle: saline 117 % of control | dose: 12.5 mg/kg/injection, schedule: Q04DX003 (ip), vehicle: saline 94 % of control and 102 % of control | dose: 15.0 mg/kg/injection, schedule: Q01DX009 (ip), vehicle: saline 102 % of control and 123 % of control | dose: 16.5 mg/kg/injection, schedule: Q01DX015 (ip), vehicle: saline 86 % of control | dose: 25.0 mg/kg/injection, schedule: Q01DX015 (ip), vehicle: saline 113 % of control | dose: 25.0 mg/kg/injection, schedule: Q04DX003 (ip), vehicle: saline 90 % of control and 97 % of control | dose: 40.0 mg/kg/injection, schedule: Q01DX015 (ip), vehicle: saline 86 % of control | dose: 50.0 mg/kg/injection, schedule: Q01DX015 (ip), vehicle: saline 114 % of control and 121 % of control | dose: 60.0 mg/kg/injection, schedule: Q01DX001 (ip), vehicle: saline 111 % of control | dose: 60.0 mg/kg/injection, schedule: Q01DX009 (ip), vehicle: saline 112 % of control and 117 % of control | dose: 75.0 mg/kg/injection, schedule: Q01DX009 (ip), vehicle: saline 115 % of control | [2] 95 % of control and 97 % of control | [3] 86 % of control and 90 % of control and 104 % of control | dose: 120.0 mg/kg/injection, schedule: Q01DX001 (ip), vehicle: saline 107 % of control | dose: 150.0 mg/kg/injection, schedule: Q01DX001 (ip), vehicle: saline 105 % of control and 110 % of control and 116 % of control | dose: 150.0 mg/kg/injection, schedule: Q04DX003 (ip), vehicle: saline 123 % of control | [4] 104 % of control and 105 % of control and 119 % of control

CC[C@H]1CN2CCc3cc(OC)c(OC)cc3[C@@H]2C[C@@H]1C[C@H]1NCCc2cc(OC)c(OC)cc21
inactive: dose: 0.5 mg/kg/injection, schedule: Q01DX009 (ip), vehicle: saline 100 % of control | dose: 0.75 mg/kg/injection, schedule: Q04DX003 (ip), vehicle: saline 87 % of control | dose: 1.0 mg/kg/injection, schedule: Q01DX009 (ip), vehicle: saline 96 % of control and 107 % of control | dose: 1.25 mg/kg/injection, schedule: Q01DX009 (ip), vehicle: saline 102 % of control | dose: 1.5 mg/kg/injection, schedule: Q04DX003 (ip), vehicle: saline 87 % of control | dose: 2.0 mg/kg/injection, schedule: Q01DX009 (ip), vehicle: saline 96 % of control | dose: 2.5 mg/kg/injection, schedule: Q01DX009 (ip), vehicle: saline with Tween-80 100 % of control | dose: 3.0 mg/kg/injection, schedule: Q01DX001 (ip), vehicle: saline 95 % of control | dose: 3.0 mg/kg/injection, schedule: Q04DX003 (ip), vehicle: saline 97 % of control | dose: 5.0 mg/kg/injection, schedule: Q01DX009 (ip), vehicle: saline with Tween-80 122 % of control | dose: 5.0 mg/kg/injection, schedule: Q04DX003 (ip), vehicle: saline 95 % of control | dose: 6.0 mg/kg/injection, schedule: Q01DX001 (ip), vehicle: saline 111 % of control | dose: 6.0 mg/kg/injection, schedule: Q04DX003 (ip), vehicle: saline 96 % of control and 118 % of control | dose: 6.2 mg/kg/injection, schedule: Q01DX001 (ip), vehicle: saline 105 % of control | [1] 96 % of control and 100 % of control and 124 % of control | dose: 6.25 mg/kg/injection, schedule: Q04DX003 (ip), vehicle: saline 116 % of control and 117 % of control | dose: 7.5 mg/kg/injection, schedule: Q01DX001 (ip), vehicle: saline 111 % of control | dose: 10.0 mg/kg/injection, schedule: Q01DX009 (ip), vehicle: saline with Tween-80 106 % of control | dose: 12.0 mg/kg/injection, schedule: Q01DX001 (ip), vehicle: saline 115 % of control | dose: 12.5 mg/kg/injection, schedule: Q01DX001 (ip), vehicle: saline 103 % of control and 113 % of control | dose: 15.0 mg/kg/injection, schedule: Q01DX001 (ip), vehicle: saline 117 % of control

O=C(NC(CSSCC(NC(=O)OCc1ccccc1)C(=O)O)C(=O)O)OCc1ccccc1 (centres undefined)
inactive: [2] 107 % of control | [3] 100 % of control | [4] 107 % of control | [5] 102 % of control | dose: 400.0 mg/kg/injection, schedule: Q04DX003 (ip), vehicle: saline 89 % of control

Cc1ccc(S(=O)(=O)Nc2ccccc2-c2nc3c(Cl)ccc(Cl)c3c(=O)o2)cc1
inactive: dose: 100.0 mg/kg/injection, schedule: Q01DX001 (ip), vehicle: Klucel (hydroxypropylcellulose) (HPC) 96 % of control | dose: 100.0 mg/kg/injection, schedule: Q04DX003 (ip), vehicle: Klucel (hydroxypropylcellulose) (HPC) 90 % of control | dose: 200.0 mg/kg/injection, schedule: Q01DX001 (ip), vehicle: Klucel (hydroxypropylcellulose) (HPC) 103 % of control | dose: 200.0 mg/kg/injection, schedule: Q04DX003 (ip), vehicle: Klucel (hydroxypropylcellulose) (HPC) 90 % of control | dose: 400.0 mg/kg/injection, schedule: Q01DX001 (ip), vehicle: Klucel (hydroxypropylcellulose) (HPC) 93 % of control

O=C(O)O
inactive: [2] 86 % of control | [4] 117 % of control | [5] 95 % of control

C[N+]1(C)Cc2ccccc2-c2ccccc2C1
inactive: dose: 50.0 mg/kg/injection, schedule: Q01DX001 (ip), vehicle: saline 94 % of control
